# Measurements taken from patent publication US20230131899A1, “INHIBITORS OF MICROBIALLY INDUCED AMYLOID” (Axial Therapeutics, Inc., priority 2020, published 2023).
# Read-outs that look alike come from different tables or passages of the source.
# How the values were obtained:
# E. coli CsgA = target: T1, E. coli CsgA (Escherichia coli, UniProt P28307); assay: In vitro ThioflavinT assay of CsgA aggregation (CsgA ThT Assay); assay type: biochemical; settings: for CsgA ThT Assay (10 μM CsgA) % Control AUC at 1005 minutes, 100 μM / CsgA ThT Assay (10 μM CsgA) % Control AUC at 1005 minutes, 25 μM: mean AUC as % of DMSO control; for CsgA ThT Assay (10 μM CsgA) % Control AUC at 1005 minutes, 100 μM / remaining activity at 100 µM / CsgA ThT Assay (10 μM CsgA) % Control AUC at 1005 minutes, 100 μM (activity range): compound 100 μM; for remaining activity at 25 µM / CsgA ThT Assay (10 μM CsgA) % Control AUC at 1005 minutes, 25 μM (activity range) / CsgA ThT Assay (10 μM CsgA) % Control AUC at 1005 minutes, 25 μM: compound 25 μM
# T1 construct: made in house; host or cells: E. coli NEB 3016 slyD::kan, pET11d
# T1 sequence (P28307 23-151): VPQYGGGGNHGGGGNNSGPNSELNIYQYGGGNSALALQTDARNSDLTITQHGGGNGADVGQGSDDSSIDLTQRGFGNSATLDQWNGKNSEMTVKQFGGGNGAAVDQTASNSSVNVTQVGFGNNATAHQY
# Protocol: In vitro ThioflavinT assay to determine effects of compounds on CsgA aggregation. To assess the effects of compounds on aggregation of E. coli CsgA, a cell-free assay was performed using purified CsgA and Thioflavin T. In the assay, histidine-tagged CsgA was over-expressed in E. coli NEB 3016 slyD::kan cells harboring a pET11d vector containing a C-terminal 6× His tag. Following growth in rich media, CsgA production is induced at an OD600 of approximately 1.0 by addition of 0.5 mM IPTG (isopropyl beta-D-1-thiogalactopyranoside) followed by incubation at 37° C. for 1-4 hours with shaking at 200-250 rpm. Bacteria were resuspended in 8 M guanidine hydrochloride in 50 mM potassium phosphate buffer, pH 7.3 and lysed by sonication on ice using three 20 second intervals. The resulting lysate was incubated on a platform rocker for 1 hour at room temperature. After centrifugation at 10,000×g for 20 minutes, the supernatant was further sonicated on ice for three 20 second intervals and then incubated with nickel-nitrilotriacetic acid resin (Sigma) at room temperature for 1 hour in a 50 mL conical tube on a platform rocker. The resin was washed and pelleted 5 times with 45 mL 8 M guanidine in 50 mM potassium phosphate buffer pH 7.3. The resin was further washed and pelleted two times with 8 M guanidine hydrochloride in 50 mM potassium phosphate buffer pH 7.3 containing 12.5 mM imidazole. Purified CsgA protein was eluted two times with 5 mL of 6-8 M guanidine hydrochloride in 50 mM potassium phosphate buffer, pH 7.3 containing 250 mM imidazole. The eluted protein was aliquoted with 150 μL per aliquot, snap frozen in liquid nitrogen, and stored at −80 C. In order to obtain monomeric CsgA, the purified CsgA protein was thawed and passed through two pre-chilled desalting columns (Zeba) to remove imidazole and guanidine. The buffer exchanged protein was loaded onto a 30-kDa centrifugal filter unit (Amicon) and spun for 30 minutes at 7500×g to remove dimers and other oligomers. Protein concentration was assessed by the NanoDrop technique (Thermo Scientific), as is familiar to one skilled in the art. The CsgA aggregation assay was conducted in 96-well black non-binding surface or white untreated microplates with 20-40 μM ThioflavinT, 50 mM potassium phosphate buffer pH 7.3, 1% DMSO, CsgA at 2-20 μM, and compounds at 3.125-200 uM. The vehicle control wells contain all components of the assay except test compounds and represent the level of CsgA aggregation in the absence of any inhibitor or accelerator. Plates were incubated at room temperature in a Tecan Nano F200 plate reader with excitation at 438 nm using a 439 nm filter with a bandwidth of 8 nm, and emission at 495 nm with a 490 nm filter with a bandwidth of 10 nm, or in a SpectraMax M5, SpectraMax M2 or SpectraMax® i3X (Molecular Devices, San Jose, Calif.) spectrophotometer with excitation at 438 nm and emission at 495 nm. During the assay, plates were shaken initially for 5 seconds and subsequently for 3 seconds prior to fluorescent readings. Readings were performed every 15 minutes for up to 1005 minutes. The effect of compounds on CsgA aggregation in the assay was determined with data from 0-17 hours. Fluorescence values for each compound with CsgA were first adjusted by subtracting the average fluorescence of the compound in the absence of CsgA or in the presence of CsgA and compound at time 0 or 15 minutes. The data were analyzed in several ways:
# 1. The adjusted ThT fluorescence values were normalized by dividing them by the average fluorescence in the vehicle control wells containing CsgA. The median normalized fluorescence from 6-6.5 hours or 8-9 hours with the compound was expressed as a percentage of the median fluorescence observed in vehicle controls over the same time period. Percent inhibition of CsgA aggregation by a compound was determined by subtracting the percent average fluorescence with the compound relative to the vehicle controls from 100%. […]
# [1] = system: CsgA gene expression (csgBAC promoter-GFP reporter) in E. coli UTI89; assay: In vitro live cell fluorescent reporter assay of CsgA transcription (Reporter Assay); assay type: cell-based
# Protocol: In vitro live cell fluorescent reporter assay to determine effects of compounds on CsgA transcription. To assess the impact of compounds on CsgA gene expression, a live cell assay was performed using an engineered strain of E. coli UTI89 with a fluorescent CsgA gene expression reporter driven by the csgBAC promoter. In the reporter strain, a gene encoding Green Fluorescent Protein (GFP) was placed immediately downstream of the full intergenic region between csgDEF and csgBAC, containing the csgBAC promoter and other transcriptional regulatory elements, and inserted in single copy into the E. coli UTI89 chromosome, as described in Cegelski et. al., “Small-molecule inhibitors target Escherichia coli amyloid biogenesis and biofilm formation,” Nat. Chem. Bio., 25 Oct. 2009. With this construct, GFP expression in the reporter strain was under the same regulation as CsgA expression. The reporter strain was struck out on a YESCA agar plate (1 g/L yeast extract, 10 g/L casamino acids, 20 g/L Bacto Agar) and grown at about 27° C. for 2 days, or until single colonies were sufficiently large to pick. A single colony of the reporter strain was used to inoculate 5 mL of YESCA broth (1 g/L yeast extract, 10 g/L casamino acids), which was grown overnight at about 27° C. The inoculum was diluted 1:10 in YESCA broth and the optical density at 600 nm (OD600) was measured on a SpectraMax M2 or M5e (Molecular Devices, San Jose, Calif.) spectrophotometer in cuvettes. The culture was then further diluted to achieve a final OD600 of 0.003, which was confirmed by measurement of the OD600. Compounds were diluted in dimethyl sulfoxide (DMSO) and plated on black clear-bottomed tissue culture-treated 96-well plates with 1.5 μL/well for final test concentrations from 0.14-100 μM. All assay wells, including vehicle controls and positive controls for inhibition, included 1% DMSO final. Vehicle control wells consisted of DMSO and the reporter strain to assess the expression of the reporter strain in the assay in the absence of any compound. […] 148.5 μL culture at OD600 0.003 in YESCA broth was added to all wells for 150 μL final volume. Plates were incubated at 27° C. for 20 hours, then GFP fluorescence signal for each well was read on a Spectramax M2 or M5e plate reader with excitation at 485 nm, emission at 525 nm, and a cutoff at 515 nm. OD600 for each well was also measured on the Spectramax M2 or M5e plate reader. […] Background fluorescence was subtracted from all wells, then fluorescence signal for each well was normalized to the mean of the vehicle control wells. Normalized dose response curves were plotted for each compound, and compound inhibition of CsgA transcription was determined by assessing the curve-fit IC50, bottom, top, span (top-bottom), and Hill slope using GraphPad Prism software version 8.1.1 (GraphPad Software, San Diego, Calif.). An additional metric used to evaluate compounds was the concentration at which the curve reached 50% of the expression level of the vehicle control. This was written as a custom analysis in GraphPad Prism according to the formula X[50], or the X value at which Y=50, ie, the compound concentration at which fluorescence of the reporter strain was calculated to reach 50% of the vehicle control fluorescence. Separately from the fluorescence data, OD600 values were normalized to the mean of the vehicle control wells, and dose response curves were plotted for each compound. OD600 reduction of greater than 10% indicated compounds had some toxicity or negative impact on bacterial growth. […]
# [2] = CsgA 10 μM, black plates, 1005 minutes
# [3] = read-out: CsgA ThT Assay (10 μM CsgA) % Control AUC at 1005 minutes, 25 μM (activity range), CsgA 10 μM, black plates, 1005 minutes, class symbol
# [4] = read-out: CsgA ThT Assay (10 μM CsgA) % Control AUC at 1005 minutes, 25 μM, mean AUC as % of DMSO control, CsgA 10 μM, black plates, 1005 minutes
# [5] = Escherichia coli, read-out: Reporter Assay Abs IC50 (activity range), median Abs IC50 in the CsgA reporter assay, class symbol
# [6] = Escherichia coli, read-out: Reporter Assay Abs IC50 (μM), median Abs IC50 in the CsgA reporter assay, N/A = maximum expression reduction is <50% of control
# [7] = CsgA 10 μM, black plates, 1005 minutes, class symbol
# [8] = read-out: Reporter Assay Abs IC50 (activity range), median Abs IC50 in the CsgA reporter assay, class symbol
# [9] = read-out: Reporter Assay Abs IC50, median Abs IC50 in the CsgA reporter assay, N/A = maximum expression reduction is <50% of control
# [10] = read-out: CsgA ThT Assay (2 μM CsgA) % Control Bmax 25 μM, activity range, class symbol, CsgA 2 μM, white plates
# [11] = read-out: CsgA ThT Assay (2 μM CsgA) % Control Bmax 25 μM, mean Bmax as percentage of DMSO control, CsgA 2 μM, white plates
# [12] = read-out: CsgA ThT Assay (2 μM CsgA) % Control Bmax 100 μM, activity range, class symbol, CsgA 2 μM, white plates
# [13] = read-out: CsgA ThT Assay (2 μM CsgA) % Control Bmax 100 μM, mean Bmax as percentage of DMSO control, CsgA 2 μM, white plates
# [14] = Escherichia coli, read-out: Reporter Assay Abs IC50, activity range, class symbol
Compound,"CsgA ThT Assay (10 μM CsgA) % Control AUC at 1005 minutes, 100 μM (E. coli CsgA; [2])",remaining activity at 25 µM (E. coli CsgA; [3]),remaining activity at 25 µM (E. coli CsgA; [4]),"remaining activity at 100 µM (E. coli CsgA; read-out: CsgA ThT Assay (10 μM CsgA) % Control AUC at 1005 minutes, 100 μM (activity range), CsgA 10 μM, black plates, 1005 minutes, class symbol)","IC50 [1, 5]","IC50 [1, 6]","CsgA ThT Assay (10 μM CsgA) % Control AUC at 1005 minutes, 25 μM (activity range) (E. coli CsgA; [7])","CsgA ThT Assay (10 μM CsgA) % Control AUC at 1005 minutes, 100 μM (activity range) (E. coli CsgA; [7])","CsgA ThT Assay (10 μM CsgA) % Control AUC at 1005 minutes, 25 μM (E. coli CsgA; [2])","IC50 [1, 8]","IC50 [1, 9]",remaining activity at 25 µM (E. coli CsgA; [10]),remaining activity at 25 µM (E. coli CsgA; [11]),remaining activity at 100 µM (E. coli CsgA; [12]),remaining activity at 100 µM (E. coli CsgA; [13]),"IC50 [1, 14]"
"CCCCN1CC(C(=O)O)n2c(c(-c3cccc(C(F)(F)F)c3)c(Cc3cccc4ccccc34)cc2=O)S1(=O)=O (single isomer, unassigned) [Compound 021a, 2-butyl-8-(naphthalen-1-ylmethyl)-6-oxo-9-(3-(trifluoromethyl)phenyl)-3,4-dihydro-2H,6H-pyrido[1,2-e][1,2,5]thiadiazine-4-carboxylic acid 1,1-dioxide]",73%,31 to 60%,36%,> 60%,1.3 to 4.5 µM,3.3 µM,–,–,–,–,–,–,–,–,–,–
"CCCCN1CC(C(=O)O)n2c(c(-c3cccc(C(F)(F)F)c3)c(Cc3cccc4ccccc34)cc2=O)S1(=O)=O (single isomer, unassigned) [Compound 021b, 2-butyl-8-(naphthalen-1-ylmethyl)-6-oxo-9-(3-(trifluoromethyl)phenyl)-3,4-dihydro-2H,6H-pyrido[1,2-e][1,2,5]thiadiazine-4-carboxylic acid 1,1-dioxide]",99%,–,–,–,–,–,(++) (% control AUC of 31 to 60%),(+) (% control AUC of greater than 60%),36%,1.3 to 4.5 µM,2.1 µM,–,–,–,–,–
"CCCCCN1CC(C(=O)O)n2c(c(-c3cccc(C(F)(F)F)c3)c(Cc3cccc4ccccc34)cc2=O)S1(=O)=O (single isomer, unassigned) [Compound 025b, 8-(naphthalen-1-ylmethyl)-6-oxo-2-pentyl-9-(3-(trifluoromethyl)phenyl)-3,4-dihydro-2H,6H-pyrido[1,2-e][1,2,5]thiadiazine-4-carboxylic acid 1,1-dioxide]",107%,–,–,–,–,–,(++) (% control AUC of 31 to 60%),(+) (% control AUC of greater than 60%),46%,1.3 to 4.5 µM,2.4 µM,–,–,–,–,–
"COc1ccc(CN2C[C@H](C(=O)O)n3c(c(-c4cccc(C(F)(F)F)c4)c(Cc4cccc5ccccc45)cc3=O)S2(=O)=O)cc1 (single isomer, unassigned) [Compound 026b]",–,31 to 60%,47%,–,1.3 to 4.5 µM,2.8 µM,–,–,–,–,–,–,–,–,–,–
"O=C(O)[C@@H]1CN(Cc2ccccc2)c2c(-c3cccc(C(F)(F)F)c3)c(Cc3cccc4ccccc34)c(Br)c(=O)n21 (single isomer, unassigned) [Compound 189]",–,–,–,–,–,1.4 µM,–,–,–,–,–,31 to 60%,58%,31 to 60%,49%,1.3 to 4.5 µM
"O=C(O)[C@H]1CN(Cc2ccccc2)c2c(-c3cccc(C(F)(F)F)c3)c(Cc3cccc4ccccc34)c(Br)c(=O)n21 (single isomer, unassigned) [Compound 190]",–,–,–,–,–,1.6 µM,–,–,–,–,–,> 60%,63%,31 to 60%,56%,1.3 to 4.5 µM
